Target: IgE-Tb / sFcεRIα-Y131A-AF488 (Homo sapiens, UniProt P01854, N146Q/N252Q)
Experiment: IgE-Tb / sFcεRIα-Y131A-AF488 FRET assay (protocol for examples 234 to 501)
Assay type: binding
Settings: examples 234 to 501: compound with IgE-Tb 30 minutes before sFcεRIα-Y131A-AF488, incubated 18 hours at room temperature; read-out: Y131A FRET IC50 range
Method in brief: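 Compounds (10-point 3-fold series, top usually 10 μM, 2% DMSO) preincubated 30 min with 5 nM IgE-Tb, then 25 nM sFcεRIα-Y131A-AF488 added; 18 h at room temperature in the dark. TR-FRET ratio 520/490 nm after 337 nm excitation, background-subtracted; IC50 by four-parameter logistic fit.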

IgE-Tb / sFcεRIα-Y131A-AF488, sequence (P01854 whole entry N146Q/N252Q): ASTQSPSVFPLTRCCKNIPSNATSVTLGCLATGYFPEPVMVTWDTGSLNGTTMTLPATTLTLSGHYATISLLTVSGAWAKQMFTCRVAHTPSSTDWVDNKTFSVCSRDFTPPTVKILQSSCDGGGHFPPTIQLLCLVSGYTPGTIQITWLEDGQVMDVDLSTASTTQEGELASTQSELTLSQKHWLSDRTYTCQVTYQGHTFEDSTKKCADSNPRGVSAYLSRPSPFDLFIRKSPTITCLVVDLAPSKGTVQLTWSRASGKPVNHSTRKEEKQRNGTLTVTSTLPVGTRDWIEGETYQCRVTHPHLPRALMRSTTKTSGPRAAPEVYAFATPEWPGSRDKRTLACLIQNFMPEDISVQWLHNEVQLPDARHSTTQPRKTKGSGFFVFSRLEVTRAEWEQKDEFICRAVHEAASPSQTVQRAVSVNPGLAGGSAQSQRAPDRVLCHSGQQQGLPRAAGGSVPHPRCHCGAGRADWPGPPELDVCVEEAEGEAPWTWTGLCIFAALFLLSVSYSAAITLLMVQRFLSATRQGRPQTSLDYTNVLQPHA

Structure (SMILES)	IC50
Cn1nc(C(F)F)cc1Nc1nncn1[C@H]1CCc2sc(NC(=O)[C@H]3CC34CC4)c(C(=O)NC[C@H]3C[C@H]3F)c2C1 [Example 412, (5S)-5-[3-[[5-(Difluoromethyl)-2-methylpyrazol-3-yl]amino]-1,2,4-triazol-4-yl]-N-[[(1R,2R)-2-fluorocyclopropyl]methyl]-2-[[(2S)-spiro[2.2]pentane-2-carbonyl]amino]-4,5,6,7-tetrahydro-1-benzothiophene-3-carboxamide]	< 1000 nM
Cn1nc(C(F)F)cc1Nc1nncn1[C@H]1CCc2sc(NC(=O)[C@H]3CC34CC4)c(C(=O)NC[C@H]3C[C@@H]3F)c2C1 [Example 413, (5S)-5-[3-[[5-(Difluoromethyl)-2-methylpyrazol-3-yl]amino]-1,2,4-triazo-4-yl]-N-[[(1R,2S)-2-fluorocyclopropyl]methyl]-2-[[(25)-spiro[2.2]pentane-2-carbonyl]amino]-4,5,6,7-tetrahydro-1-benzothiophene-3-carboxamide]	< 1000 nM
Cn1nc(C(F)F)cc1Nc1nncn1[C@H]1CCc2sc(NC(=O)[C@H]3CC34CC4)c(C(=O)N[C@H]3CC34CC4)c2C1 [Example 414, (5S)-5-[3-[[5-(difluoromethyl)-2-methyl-pyrazol-3-yl]amino]-1,2,4-triazol-4-yl]-2-[[(2S)-spiro[2.2]pentane-2-carbonyl]amino]-N-[(25)-spiro[2.2]pentan-2-yl]-4,5,6,7-tetrahydrobenzothiophene-3-carboxamide]	< 1000 nM
Cn1nc(C(F)F)cc1Nc1nncn1[C@H]1CCc2sc(NC(=O)[C@H]3CC34CC4)c(C(=O)N[C@@H]3CC34CC4)c2C1 [Example 415, (5S)-5-[3-[[5-(difluoromethyl)-2-methyl-pyrazol-3-yl]amino]-1,2,4-triazol-4-yl]-2-[[(2S)-spiro[2.2]pentane-2-carbonyl]amino]-N-[(2R)-spiro[2.2]pentan-2-yl]-4,5,6,7-tetrahydrobenzothiophene-3-carboxamide]	< 1000 nM
Cn1nc(C(F)F)cc1Nc1nncn1[C@H]1CCc2sc(NC(=O)[C@H]3CC34CC4)c(C(=O)NCC3CC3)c2C1 [Example 416, (5S)—N-(Cyclopropylmethyl)-5-[3-[[5-(difluoromethyl)-2-methyl-pyrazol-3-yl]amino]-1,2,4-triazol-4-yl]-2-[[(2S)-spiro[2.2]pentane-2-carbonyl]amino]-4,5,6,7-tetrahydrobenzothiophene-3-carboxamide]	< 1000 nM
Cn1nc(C#N)cc1Nc1nncn1[C@H]1CCc2sc(NC(=O)C3CC3)c(C(=O)NCC3CC3)c2C1 [Example 418, (5S)-5-[3-[(5-Cyano-2-methyl-pyrazol-3-yl)amino]-1,2,4-triazol-4-yl]-2-(cyclopropanecarbonylamino)-N-(cyclopropylmethyl)-4,5,6,7-tetrahydrobenzothiophene-3-carboxamide]	< 1000 nM
O=C(NCC1CC1)c1c(NC(=O)C2CC2)sc2c1C[C@@H](n1cnnc1Nc1ccc3c(c1)OC(F)(F)O3)CC2 [Example 419, (5S)-2-(Cyclopropanecarbonylamino)-N-(cyclopropylmethyl)-5-[3-[(2,2-difluoro-1,3-benzodioxol-5-yl)amino]-1,2,4-triazol-4-yl]-4,5,6,7-tetrahydrobenzothiophene-3-carboxamide]	< 1000 nM
Cn1nc(C(F)F)cc1Nc1nncn1[C@H]1CCc2sc(NC(=O)[C@H]3CC34CC4)c(C(=O)NC[C@@H]3C[C@@H]3F)c2C1 [Example 420, (5S)-5-[3-[[5-(Difluoromethyl)-2-methyl-pyrazol-3-yl]amino]-1,2,4-triazol-4-yl]-N-[[(1S,2S)-2-fluorocyclopropyl]methyl]-2-[[(2S)-spiro[2.2]pentane-2-carbonyl]amino]-4,5,6,7-tetrahydrobenzothiophene-3-carboxamide]	< 1000 nM
O=C(NCC1CC1)c1c(NC(=O)C2CC2)sc2c1C[C@@H](n1cnnc1Nc1ccc(C(F)F)nc1)CC2 [Example 423, (5S)-2-(cyclopropanecarbonylamino)-N-(cyclopropylmethyl)-5-[3-[[6-(difluoromethyl)-3-pyridyl]amino]-1,2,4-triazol-4-yl]-4,5,6,7-tetrahydrobenzothiophene-3-carboxamide]	< 1000 nM
Cc1nc(F)ccc1Nc1nncn1[C@H]1CCc2sc(NC(=O)C3CC3)c(C(=O)NCC3CC3)c2C1 [Example 424, (5S)-2-(cyclopropanecarbonylamino)-N-(cyclopropylmethyl)-5-[3-[(6-fluoro-2-methyl-3-pyridyl)amino]-1,2,4-triazol-4-yl]-4,5,6,7-tetrahydrobenzothiophene-3-carboxamide]	< 1000 nM
Cn1nc(OC2CC2)cc1Nc1nncn1[C@H]1CCc2sc(NC(=O)[C@H]3C[C@@H]3F)c(C(=O)NCC3CC3)c2C1 [Example 425]	< 1000 nM
Cn1nc(OCC(F)(F)F)cc1Nc1nncn1[C@H]1CCc2sc(NC(=O)[C@H]3C[C@@H]3F)c(C(=O)NCC3CC3)c2C1 [Example 426, (5S)—N-(cyclopropylmethyl)-2-[[(1R,2S)-2-fluorocyclopropanecarbonyl]amino]-5-[3-[[2-methyl-5-(2,2,2-trifluoroethoxy)pyrazol-3-yl]amino]-1,2,4-triazol-4-yl]-4,5,6,7-tetrahydrobenzothiophene-3-carboxamide]	< 1000 nM
O=C(NCC1CC1)c1c(NC(=O)C2CC2)sc2c1C[C@@H](n1cnnc1Nc1ccc(C(F)(F)F)nc1)CC2 [Example 427, (5S)-2-(cyclopropanecarbonylamino)-N-(cyclopropylmethyl)-5-[3-[[6-(trifluoromethyl)-3-pyridyl]amino]-1,2,4-triazol-4-yl]-4,5,6,7-tetrahydrobenzothiophene-3-carboxamide]	< 1000 nM
COc1ccc(Nc2nncn2[C@H]2CCc3sc(NC(=O)C4CC4)c(C(=O)NCC4CC4)c3C2)cn1 [Example 428, (5S)-2-(cyclopropanecarbonylamino)-N-(cyclopropylmethyl)-5-[3-[(6-methoxy-3-pyridyl)amino]-1,2,4-triazol-4-yl]-4,5,6,7-tetrahydrobenzothiophene-3-carboxamide]	< 1000 nM
COc1cc(Nc2nncn2[C@H]2CCc3sc(NC(=O)C4CC4)c(C(=O)NCC4CC4)c3C2)ccn1 [Example 429, (5S)-2-(cyclopropanecarbonylamino)-N-(cyclopropylmethyl)-5-[3-[(2-methoxy-4-pyridyl)amino]-1,2,4-triazol-4-yl]-4,5,6,7-tetrahydrobenzothiophene-3-carboxamide]	< 1000 nM
O=C(NCC1CC1)c1c(NC(=O)C2CC2)sc2c1C[C@@H](n1cnnc1Nc1ccc(Cl)nc1)CC2 [Example 430, (5S)-5-[3-[(6-chloro-3-pyridyl)amino]-1,2,4-triazol-4-yl]-2-(cyclopropanecarbonylamino)-N-(cyclopropylmethyl)-4,5,6,7-tetrahydrobenzothiophene-3-carboxamide]	< 1000 nM
O=C(NCC1CC1)c1c(NC(=O)C2CC2)sc2c1C[C@@H](n1cnnc1Nc1ccnc(Cl)c1)CC2 [Example 431, (5S)-5-[3-[(2-chloro-4-pyridyl)amino]-1,2,4-triazol-4-yl]-2-(cyclopropanecarbonylamino)-N-(cyclopropylmethyl)-4,5,6,7-tetrahydrobenzothiophene-3-carboxamide]	< 1000 nM
COc1ccc(Nc2nncn2[C@H]2CCc3sc(NC(=O)C4CC4)c(C(=O)NCC4CC4)c3C2)c(C)n1 [Example 432, (5S)-2-(cyclopropanecarbonylamino)-N-(cyclopropylmethyl)-5-[3-[(6-methoxy-2-methyl-3-pyridyl)amino]-1,2,4-triazol-4-yl]-4,5,6,7-tetrahydrobenzothiophene-3-carboxamide]	< 1000 nM
O=C(NCC1CC1)c1c(NC(=O)C2CC2)sc2c1C[C@@H](Nc1nc3cccnc3s1)CC2 [Example 433]	< 1000 nM
Cn1nncc1Nc1nncn1[C@H]1CCc2sc(NC(=O)C3CC3)c(C(=O)NCC3CC3)c2C1 [Example 434, (5S)-2-(cyclopropanecarbonylamino)-N-(cyclopropylmethyl)-5-[3-[(3-methyltriazol-4-yl)amino]-1,2,4-triazol-4-yl]-4,5,6,7-tetrahydrobenzothiophene-3-carboxamide]	< 1000 nM
C[C@H]1C[C@@H]1C(=O)Nc1sc2c(c1C(=O)NC[C@@H]1C[C@@H]1F)C[C@@H](n1cnnc1Nc1cc(C(F)F)nn1C)CC2 [Example 435, (5S)-5-[3-[[5-(difluoromethyl)-2-methylpyrazol-3-yl]amino]-1,2,4-triazol-4-yl]-N-[[(1S,2S)-2-fluorocyclopropyl]methyl]-2-[[(1S,2S)-2-methylcyclopropanecarbonyl]amino]-4,5,6,7-tetrahydro-1-benzothiophene-3-carboxamide]	< 1000 nM
C[C@H]1C[C@@H]1C(=O)Nc1sc2c(c1C(=O)NC[C@H]1C[C@@H]1F)C[C@@H](n1cnnc1Nc1cc(C(F)F)nn1C)CC2 [Example 436, (5S)-5-[3-[[5-(difluoromethyl)-2-methylpyrazol-3-yl]amino]-1,2,4-triazol-4-yl]-N-[[(1R,2S)-2-fluorocyclopropyl]methyl]-2-[[(1S,2S)-2-methylcyclopropanecarbonyl]amino]-4,5,6,7-tetrahydro-1-benzothiophene-3-carboxamide]	< 1000 nM
C[C@H]1C[C@@H]1C(=O)Nc1sc2c(c1C(=O)NC[C@H]1C[C@H](F)C1)C[C@@H](n1cnnc1Nc1cc(C(F)F)nn1C)CC2 [Example 437, (5S)-5-[3-[[5-(difluoromethyl)-2-methylpyrazol-3-yl]amino]-1,2,4-triazol-4-yl]-N-[trans-(3-fluorocyclobutyl)methyl]-2-[[(1S,2S)-2-methylcyclopropanecarbonyl]amino]-4,5,6,7-tetrahydro-1-benzothiophene-3-carboxamide]	< 1000 nM

— US12018021B2 (UCB Biopharma SRL, priority 2018, dated 2024)
